From ChEMBL document CHEMBL5335838, “The medicinal chemistry evolution of antibody-drug conjugates” (RSC Med Chem, 2024)
pIC50: −log10 of the molar value. Converted amounts (≈) assume the structure as drawn. Blank lines part the entries; values can stand above or below the compound they belong to.

Experiments:
[1] = Permeability of the compound by PAMPA assay; format: ADME; details: read-out: permeability
Glucocorticoid receptor = molecular target: T1, Glucocorticoid receptor (Homo sapiens, UniProt P04150); test: Inhibition of glucocorticoid receptor (unknown origin)
T1 sequence (P04150 whole entry): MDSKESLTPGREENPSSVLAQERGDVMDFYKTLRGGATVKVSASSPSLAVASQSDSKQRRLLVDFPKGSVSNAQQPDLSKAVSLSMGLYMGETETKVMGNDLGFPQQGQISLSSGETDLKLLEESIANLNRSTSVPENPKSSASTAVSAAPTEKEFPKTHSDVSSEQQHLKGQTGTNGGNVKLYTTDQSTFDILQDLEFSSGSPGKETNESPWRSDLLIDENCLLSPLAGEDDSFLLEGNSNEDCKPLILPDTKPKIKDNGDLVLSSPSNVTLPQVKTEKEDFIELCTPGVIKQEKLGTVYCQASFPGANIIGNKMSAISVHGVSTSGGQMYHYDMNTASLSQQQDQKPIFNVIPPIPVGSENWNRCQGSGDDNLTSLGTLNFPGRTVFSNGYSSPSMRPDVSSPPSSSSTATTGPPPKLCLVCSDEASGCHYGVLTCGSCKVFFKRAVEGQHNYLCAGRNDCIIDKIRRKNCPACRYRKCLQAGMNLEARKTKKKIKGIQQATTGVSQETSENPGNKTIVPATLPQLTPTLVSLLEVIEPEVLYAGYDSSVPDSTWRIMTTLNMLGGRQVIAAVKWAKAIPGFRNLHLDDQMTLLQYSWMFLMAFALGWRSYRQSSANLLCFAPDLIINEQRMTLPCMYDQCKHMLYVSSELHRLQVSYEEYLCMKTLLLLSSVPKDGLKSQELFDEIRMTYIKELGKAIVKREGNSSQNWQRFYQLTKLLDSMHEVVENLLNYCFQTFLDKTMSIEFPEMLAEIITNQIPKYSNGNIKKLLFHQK

[2] = Plasma protein binding in mouse assessed as unbound fraction; format: ADME, cell-free
[3] = Permeability of compound at pH 7.4 by PAMPA assay; format: ADME; details: read-out: permeability
[4] = Solubility of compound at pH 7.4; format: physicochemical; details: buffer
Cytochrome P450 1A2 = molecular target: T2, Cytochrome P450 1A2 (Homo sapiens, UniProt P05177); test: Inhibition of CYP1A2 (unknown origin); format: ADME
T2 sequence (P05177 whole entry): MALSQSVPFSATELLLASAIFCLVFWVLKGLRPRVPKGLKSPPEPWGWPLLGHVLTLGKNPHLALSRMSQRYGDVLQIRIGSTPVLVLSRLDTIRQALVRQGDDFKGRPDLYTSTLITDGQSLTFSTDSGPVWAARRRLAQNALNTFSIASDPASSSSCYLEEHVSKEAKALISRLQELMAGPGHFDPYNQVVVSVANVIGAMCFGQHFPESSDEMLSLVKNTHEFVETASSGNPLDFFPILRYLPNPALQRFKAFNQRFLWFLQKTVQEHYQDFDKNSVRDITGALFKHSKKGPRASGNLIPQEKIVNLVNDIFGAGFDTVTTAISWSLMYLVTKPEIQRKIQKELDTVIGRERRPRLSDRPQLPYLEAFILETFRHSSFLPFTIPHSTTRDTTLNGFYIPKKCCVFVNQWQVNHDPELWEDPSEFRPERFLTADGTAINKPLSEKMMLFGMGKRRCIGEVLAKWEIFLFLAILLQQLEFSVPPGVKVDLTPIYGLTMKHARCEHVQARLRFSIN

Cytochrome P450 2C9 = Cytochrome P450 2C9 (Homo sapiens, UniProt P11712); test: Inhibition of CYP2C9 (unknown origin); format: ADME
Cytochrome P450 2D6 = Cytochrome P450 2D6 (Homo sapiens, UniProt P10635); test: Inhibition of CYP2D6 (unknown origin); format: ADME
Cytochrome P450 3A4 = Cytochrome P450 3A4 (Homo sapiens, UniProt P08684); test: Inhibition of CYP3A4 (unknown origin); format: ADME
[5] = Half life in CD1 mouse at 3 mg/kg, iv; format: ADME, organism-based; details: in vivo
[6] = AUC in CD1 mouse at 3 mg/kg, iv; format: ADME, organism-based; set-up: dose 3 mg/kg, route iv; details: in vivo
[7] = Plasma clearance in CD1 mouse at 3 mg/kg, iv; format: ADME, organism-based; details: in vivo
[8] = Volume of distribution at steady state in CD1 mouse at 3 mg/kg, iv; format: ADME, organism-based; details: in vivo, read-out: Vdss
[9] = Half life in CD1 mouse at 10 mg/kg, po; format: ADME, organism-based; details: in vivo
[10] = Tmax in CD1 mouse at 10 mg/kg, po; format: ADME, organism-based; details: in vivo
[11] = Cmax in CD1 mouse at 10 mg/kg, po; format: ADME, organism-based; set-up: dose 10 mg/kg, route po; details: in vivo
[12] = AUC (0 to infinity) in CD1 mouse at 10 mg/kg, po; format: ADME, organism-based; set-up: dose 10 mg/kg, route po; details: in vivo
[13] = Oral bioavailability in CD1 mouse at 10 mg/kg; format: ADME, organism-based; details: in vivo
[14] = Half life in Sprague-Dawley rat at 0.5 mg/kg, iv; format: ADME, organism-based; details: in vivo
[15] = AUC in Sprague-Dawley rat at 0.5 mg/kg, iv; format: ADME, organism-based; set-up: dose 0.5 mg/kg, route iv; details: in vivo
[16] = Plasma clearance in Sprague-Dawley rat at 0.5 mg/kg, iv; format: ADME, organism-based; details: in vivo
[17] = Volume of distribution at steady state in Sprague-Dawley rat at 0.5 mg/kg, iv; format: ADME, organism-based; details: in vivo, read-out: Vdss
[18] = Half life in Sprague-Dawley rat at 3 mg/kg, po; format: ADME, organism-based; details: in vivo
[19] = Tmax in Sprague-Dawley rat at 3 mg/kg, po; format: ADME, organism-based; details: in vivo
[20] = Cmax in Sprague-Dawley rat at 3 mg/kg, po; format: ADME, organism-based; set-up: dose 3 mg/kg, route po; details: in vivo
[21] = AUC (0 to infinity) in Sprague-Dawley rat at 3 mg/kg, po; format: ADME, organism-based; set-up: dose 3 mg/kg, route po; details: in vivo
[22] = Oral bioavailability in Sprague-Dawley rat at 3 mg/kg; format: ADME, organism-based; details: in vivo

Chain of Cytochrome P450 3A4 (P08684 whole entry): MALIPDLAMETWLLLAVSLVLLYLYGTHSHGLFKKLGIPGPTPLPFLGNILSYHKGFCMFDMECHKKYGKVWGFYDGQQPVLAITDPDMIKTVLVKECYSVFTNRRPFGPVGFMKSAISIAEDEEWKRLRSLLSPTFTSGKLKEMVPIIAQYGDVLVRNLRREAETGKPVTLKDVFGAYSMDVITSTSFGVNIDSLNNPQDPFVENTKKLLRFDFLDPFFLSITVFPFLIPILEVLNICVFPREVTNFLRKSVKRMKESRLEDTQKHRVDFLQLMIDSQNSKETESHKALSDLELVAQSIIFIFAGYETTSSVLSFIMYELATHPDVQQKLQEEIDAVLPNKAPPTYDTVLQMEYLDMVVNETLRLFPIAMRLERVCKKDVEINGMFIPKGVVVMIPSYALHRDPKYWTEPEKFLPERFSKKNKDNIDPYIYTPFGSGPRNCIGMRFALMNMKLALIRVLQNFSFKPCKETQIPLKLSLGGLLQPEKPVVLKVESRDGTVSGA
Chain of Cytochrome P450 2D6 (P10635 whole entry): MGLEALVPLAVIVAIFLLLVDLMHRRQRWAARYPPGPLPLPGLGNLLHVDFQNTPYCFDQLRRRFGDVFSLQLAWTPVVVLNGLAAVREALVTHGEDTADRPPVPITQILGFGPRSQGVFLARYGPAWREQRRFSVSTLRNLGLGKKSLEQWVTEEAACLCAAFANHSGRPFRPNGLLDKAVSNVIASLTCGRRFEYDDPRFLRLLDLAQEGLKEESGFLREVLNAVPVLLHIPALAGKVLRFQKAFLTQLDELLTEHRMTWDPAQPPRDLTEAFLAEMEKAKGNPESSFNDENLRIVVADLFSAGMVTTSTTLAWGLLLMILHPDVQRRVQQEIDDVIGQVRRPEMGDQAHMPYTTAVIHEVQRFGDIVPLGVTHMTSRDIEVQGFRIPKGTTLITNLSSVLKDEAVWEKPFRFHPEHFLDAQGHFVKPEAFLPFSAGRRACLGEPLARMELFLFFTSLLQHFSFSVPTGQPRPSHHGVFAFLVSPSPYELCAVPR
Chain of Cytochrome P450 2C9 (P11712 whole entry): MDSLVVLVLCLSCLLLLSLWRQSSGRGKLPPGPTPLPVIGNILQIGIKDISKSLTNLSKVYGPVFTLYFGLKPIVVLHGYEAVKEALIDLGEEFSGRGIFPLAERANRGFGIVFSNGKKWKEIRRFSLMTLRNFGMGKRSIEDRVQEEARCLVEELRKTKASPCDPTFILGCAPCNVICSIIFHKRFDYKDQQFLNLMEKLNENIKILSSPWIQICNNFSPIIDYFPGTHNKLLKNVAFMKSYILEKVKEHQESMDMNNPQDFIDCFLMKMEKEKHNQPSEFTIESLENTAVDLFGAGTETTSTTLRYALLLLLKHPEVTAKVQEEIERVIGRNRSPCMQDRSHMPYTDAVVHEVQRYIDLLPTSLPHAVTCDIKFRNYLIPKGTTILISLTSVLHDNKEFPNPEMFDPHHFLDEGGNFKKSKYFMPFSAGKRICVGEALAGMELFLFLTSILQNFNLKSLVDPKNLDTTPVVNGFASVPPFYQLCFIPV

Papp [1]: 0.23 ×10⁻⁶ cm/s
Structure (SMILES): C[C@]12C=CC(=O)C=C1CC[C@@H]1[C@@H]2[C@@H](O)C[C@@]2(C)[C@H]1C[C@H]1O[C@@H](c3ccc(CN4CCNCC4)cc3)O[C@]12C(=O)CO

Structure (SMILES): C[C@]12C=CC(=O)C=C1CC[C@@H]1[C@@H]2[C@@H](O)C[C@@]2(C)[C@H]1C[C@H]1O[C@@H](C3CCCCC3)O[C@]12C(=O)CO [DESISOBUTYRYLCICLESONIDE]
pIC50 (Glucocorticoid receptor): 8.70

Structure (SMILES): C[C@]12C=CC(=O)C=C1CC[C@@H]1[C@@H]2[C@@H](O)C[C@@]2(C)[C@H]1C[C@H]1O[C@@H](c3ccc(Cc4cccc(N)c4)cc3)O[C@]12C(=O)CO
Fu [2]: 0.01%
Papp [3]: 0.2 ×10⁻⁶ cm/s
solubility [4]: 1.33 µM (≈ 0.758 µg/mL)
pIC50 (Cytochrome P450 1A2): < 4.40
pIC50 (Cytochrome P450 2C9): 4.74
pIC50 (Cytochrome P450 2D6): < 4.40
pIC50 (Cytochrome P450 3A4): > 7.70
half-life [5]: 3.82 h
AUC [6]: 3580 ng·h/mL
clearance [7]: 14.2 mL/min/kg
Vd [8]: 2.91 L/kg
half-life [9]: 3.56 h
Tmax [10]: 1.42 h
Cmax [11]: 40 ng/mL
AUC [12]: 0.21 µg/h/mL
bioavailability [13]: 1%
half-life [14]: 1.2 h
AUC [15]: 220 ng·h/mL
clearance [16]: 37.8 mL/min/kg
Vd [17]: 2.55 L/kg
half-life [18]: 2.86 h
Tmax [19]: 0.25 h
Cmax [20]: 80 ng/mL
AUC(0-inf) [21]: 220 ng·h/mL
bioavailability [22]: 16.8%

Papp [1]: 0.22 ×10⁻⁶ cm/s
Structure (SMILES): C[C@]12C=CC(=O)C=C1[C@@H](F)C[C@H]1[C@@H]3C[C@H]4O[C@@H](c5ccc(CN6CCNCC6)cc5)O[C@@]4(C(=O)CO)[C@@]3(C)C[C@H](O)[C@@]12F
